Legend:
[1] = system: GM-CSF induced ERK1/2 activation in macrophage progenitors; assay: GM-CSF induced ERK1/2 activation in macrophage progenitors, immunoblot; type: cell-based; settings: 2 μM TTN for 2 hours, GM-CSF 50 ng/mL
Procedure: Bone marrow low density mononuclear cells (LDMNCs) were transduced with MIEG3 (empty vector), MIEG3-WT SHP2, or MIEG3-SHP2/E76K, sorted based on enhanced green fluorescent protein (EGFP) expression, and cultured for 5 days in M-CSF 100 ng/mL to generate macrophage progenitors, as previously described (Chan et al., 2005). Cells were serum- and growth factor-deprived for 16 hours, treated with 2 μM TTN for 2 hours, and stimulated with GM-CSF 50 ng/mL followed by preparation of protein extracts. Extracts were evaluated by immunoblot using α-phospho-ERK1/2 for activated ERK levels and α-ERK1/2 for total ERK levels (Cell Signaling Technology, Beverly, Mass.).
For biochemical studies, macrophage progenitor cells expressing empty vector (MIEG3), wild-type SHP2, or SHP2/E76K were serum- and growth factor-deprived for […]. Cells were pre-treated with DMSO or 2 μM TTN for 2 hours, and then cultures either remained unstimulated or were stimulated with GM-CSF at 50 ng/mL for 60 minutes. […] They next examined the effect of TTN on GM-CSF-stimulated hyperproliferation of SHP2/E76K-expressing hematopoietic progenitors. […] To provide further evidence that SHP2 is a molecular target of TTN, the inventors determined the X-ray crystal structure of SHP2 in complex with TTN D-1, as crystallization attempts for the SHP2-TTN complex were unsuccessful. […]

Cdc14A = biological target: T1, Cdc14A (Homo sapiens, UniProt Q9UNH5); assay: PTP activity assay with pNPP as substrate: Cdc14A; type: biochemical; settings: pNPP as substrate at Km, pH 7.0, 25° C., I = 0.15 M
T1 sequence (Q9UNH5 1-594): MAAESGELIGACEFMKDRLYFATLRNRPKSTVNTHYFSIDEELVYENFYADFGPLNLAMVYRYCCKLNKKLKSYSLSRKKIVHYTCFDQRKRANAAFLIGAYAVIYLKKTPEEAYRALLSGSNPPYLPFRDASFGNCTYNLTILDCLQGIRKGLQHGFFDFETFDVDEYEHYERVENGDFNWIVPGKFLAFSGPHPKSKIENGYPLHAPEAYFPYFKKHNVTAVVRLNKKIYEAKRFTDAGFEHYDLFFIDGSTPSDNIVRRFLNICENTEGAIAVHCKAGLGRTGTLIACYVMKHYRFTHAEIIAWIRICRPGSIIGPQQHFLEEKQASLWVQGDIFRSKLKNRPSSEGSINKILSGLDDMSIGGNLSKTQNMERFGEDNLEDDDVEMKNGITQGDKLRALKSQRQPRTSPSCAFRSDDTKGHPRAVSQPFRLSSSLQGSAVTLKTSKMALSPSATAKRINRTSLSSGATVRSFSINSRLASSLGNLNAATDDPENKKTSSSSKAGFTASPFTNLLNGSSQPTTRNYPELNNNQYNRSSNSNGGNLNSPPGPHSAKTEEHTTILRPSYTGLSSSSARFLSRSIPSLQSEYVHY
Procedure: (§1) The PTP activity was assayed using pNPP as a substrate at 25° C. in 50 mM 3,3-dimethylglutarate buffer, pH 7.0, containing 1 mM EDTA with an ionic strength of 0.15 M adjusted by NaCl. TTM, TTN and the engineered analogs were analyzed for inhibition of a panel of PTPs at 10 μM compound concentration. For each enzyme screened, test compounds were diluted to 20 μM in 100 μL and combined with 50 μL pNPP at a concentration of 4×Km. The reaction was initiated by the addition of 50 μL of 4× concentrated enzyme and pNPP was allowed to convert to the product p-nitrophenol. The reaction was quenched by the addition of 50 μL of 5N NaOH. Nonenzymatic hydrolysis of pNPP was corrected by measuring the control without the addition of enzyme. Production of p-nitrophenol was monitored by a Spectra MAX385 microplate spectrophotometer (Molecular Devices) at 405 nm using a molar extinction coefficient of 18,000 M^−1 cm^−1. IC50 values were calculated by fitting the absorbance at 405 nm versus inhibitor concentration to the following equation: AI/A0=IC50/(IC50+[I]) where AI is the absorbance at 405 nm of the sample in the presence of inhibitor; Ao is the absorbance at 405 nm in the absence of inhibitor; and [I] is the concentration of the inhibitor.

[2] = system: hematopoietic progenitors (MIEG3, wild-type SHP2, SHP2/E76K); assay: Methylcellulose-based colony assay of transduced bone marrow LDMNCs (CFU-M / CFU-GM); type: cell-based; settings: 2 μM TTN, GM-CSF 1 ng/mL, 7 days
Procedure: Transduced, EGFP+ cells were subjected to ^3H-thymidine incorporation assays, as previously described (Munugalavadla et al., 2007), or plated at a concentration of 8000 cells/mL in 0.9% methylcellulose-based media containing IMDM, 2 mM glutamine, 1% penicillin/streptomycin, 80 μM β-mercaptoethanol, 30% FBS, and GM-CSF 1 ng/mL or with saturating concentrations of growth factors including IL-3 200 U/mL, erythropoietin 4 U/mL, and stem cell factor (SCF) 100 ng/mL. All growth factors were from Peprotech. Cultures were incubated in a humidified incubator at 37° C. in 5% CO2 for 7 days and were scored for total colonies and for morphology to determine colony forming unit (CFU)-granulocyte-macrophage (GM) or CFU-monocyte (M).
For biochemical studies, macrophage progenitor cells expressing empty vector (MIEG3), wild-type SHP2, or SHP2/E76K were serum- and growth factor-deprived for 24 hours. Cells were pre-treated with DMSO or 2 μM TTN for 2 hours, and then cultures either remained unstimulated or were stimulated with GM-CSF at 50 ng/mL for 60 minutes. […] To provide further evidence that SHP2 is a molecular target of TTN, the inventors determined the X-ray crystal structure of SHP2 in complex with TTN D-1, as crystallization attempts for the SHP2-TTN complex were unsuccessful. […]

T cell proliferation = settings: relative to cyclosporine A (CsA); cited from earlier work
PP1 = settings: cited from earlier work
HePTP = biological target: T2, HePTP (Homo sapiens, UniProt P35236); assay: PTP activity assay with pNPP as substrate: HePTP; type: biochemical; settings: pNPP as substrate at Km, pH 7.0, 25° C., I = 0.15 M
T2 sequence (P35236 1-360): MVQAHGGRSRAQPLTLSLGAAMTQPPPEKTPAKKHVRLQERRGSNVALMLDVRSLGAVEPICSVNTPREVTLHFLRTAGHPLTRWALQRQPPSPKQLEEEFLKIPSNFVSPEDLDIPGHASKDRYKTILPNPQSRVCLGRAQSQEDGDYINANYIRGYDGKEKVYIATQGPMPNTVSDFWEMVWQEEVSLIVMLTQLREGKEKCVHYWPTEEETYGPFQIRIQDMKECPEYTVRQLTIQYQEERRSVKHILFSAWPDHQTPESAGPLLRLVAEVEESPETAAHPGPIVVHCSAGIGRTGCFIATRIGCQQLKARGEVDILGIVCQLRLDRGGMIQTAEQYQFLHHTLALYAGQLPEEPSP
Procedure: as §1

tautomycetin [TTN]
effect on ERK1/2 hyperactivation in SHP2/E76K-expressing cells [1]: effectively inhibited
effect on GM-CSF induced ERK1/2 activation in macrophage progenitors [1]: abrogated
IC50 (Cdc14A): > 50 µM
development of CFU-M [2]: reduced in all cells types
concentration for inhibition of T cell proliferation, lower than that for maximal inhibition by cyclosporine A (T cell proliferation): 100 fold
preferential inhibition of PP1 relative to PP2A (PP1; literature (Mitsuhashi et al., 2001)): about 40 fold
IC50 (PP1; literature values): 0.0016 µM
IC50 (HePTP): > 50 µM
